Measurements published in patent publication US20190070159A1, “NOVEL PHARMACEUTICAL USES” (TAKEDA PHARMACEUTICAL COMPANY LIMITED, priority 2015, published 2019).

How the values were obtained:
[1] = test system: non-erosive reflux disease (NERD); conditions: NERD patients, cited from earlier work
gastric acid secretion [2] = conditions: rats, versus the PPI lansoprazole; cited from earlier work
[3] = test system: GERD symptoms (heartburn and acid regurgitation); experiment: Clinical study in PPI partial responders (NERD and LA grade A EE), symptom diary; format: in vivo, human; conditions: TAK-438 20 mg QD or 40 mg QD for 4 weeks
Experimental: A study is held to evaluate TAK-438 (20 mg QD and 40 mg QD) in subjects who have a history of heartburn-predominant GERD despite an adequate course of PPI treatment and who are then confirmed to have a partial response to a 4-week treatment course with a PPI (esomeprazole 40 mg QD).
Subjects are eligible for participation in the study if they: • have a documented history of symptoms of both heartburn and acid regurgitation prior to entry into the study; • have a history of heartburn-predominant GERD despite an adequate course of PPI treatment; • continue to have symptoms of heartburn (with or without regurgitation) following 4 weeks treatment with a high dose of esomeprazole 40 mg QD; • have symptoms of heartburn (with or without regurgitation) which increase following a 2-week washout period compared with the prior 4 week course of high dose esomeprazole 40 mg QD.
The subjects entered into the study are NERD and mild (LA grade A, as defined by the Los Angeles Classification) erosive esophagitis (EE). […]

gastric acid secretion [4] = experiment: 24-hour gastroesophageal pH monitoring, phase 3 study in PPI-resistant EE patients; format: in vivo, human
Experimental: (§1) This was a phase 3, randomized, double-blind, parallel-group, multicenter study to evaluate the dose-response relationships of the acid-inhibitory effect and efficacy of TAK-438 (20 mg and 40 mg) in patients with PPI-resistant EE of LA Classification Grades A to D.
(§2) A patient with PPI-resistant EE was defined as a patient who had EE of LA Classification Grades A to D endoscopically confirmed at the examination in the run-in period after receiving a regular or higher PPI dose for at least 8 weeks until immediately before the start of the run-in period. This study consisted of a 7- to 14-day run-in period and an 8-week treatment period. Subjects who entered the run-in period orally received 1 capsule of the PPI lansoprazole 30 mg once daily after breakfast for at least 7 days, but not more than 14 days. As a rule, subjects underwent endoscopic examination 2 days before the end of the run-in period, after receiving the study medication for the run-in period for at least 5 days. The acid-inhibitory effect of the study medication during the run-in period was evaluated by monitoring gastroesophageal pH for 24 hours, beginning from the day before the end of the run-in period. The subject was then randomized at a 1:1 ratio to receive either TAK-438 20 mg or 40 mg and entered the treatment period. Subjects orally received the assigned medications once daily after breakfast for 8 weeks from the day after the end of the run-in period.
Efficacy: The primary endpoint was the time course of gastroesophageal pH changes over 24 hours at steady state in the treatment period. The primary measure was gastric and esophageal pH 4 holding time ratios (HTRs). Other measures were gastric and esophageal pH 1, 2, 3, 5, 6, and 7 HTRs, mean gastric pH, and mean esophageal pH.

erosive esophagitis (EE) = conditions: patients with erosive esophagitis; cited from earlier work
[5] = test system: PPI-resistant EE of LA Classification Grades A to D; experiment: EE healing rate after 8-week treatment, phase 3 study in PPI-resistant EE patients; format: in vivo, human
Experimental: as §1, §2
Subject eligibility for this study required that the subject had received a regular or higher dose of PPI for EE treatment for at least 8 weeks until immediately before the start of the run-in period. In addition, the subject had EE for which a regular or higher dose of PPI had not been effective, or more specifically, the subject had EE of LA Classification Grades A to D endoscopically confirmed at the examination in the run-in period.
The secondary endpoint was the EE healing rate after 8-week treatment with TAK-438.

pH holding time = conditions: cited from earlier work
[6] = Safety and tolerability, phase 3 study in PPI-resistant EE patients; format: in vivo, human; conditions: subjects with PPI-resistant EE of LA Grades A to D, 20 mg or 40 mg for 8 weeks
Experimental: as §1
as §2, with “Subjects orally received the assigned medications once daily after breakfast for 8 weeks from the day after the end of the run-in period.” left out

[7] = TAK-438 20 mg once daily, after 2 weeks, subjects with PPI-resistant EE
[8] = TAK-438 40 mg once daily, after 2 weeks, subjects with PPI-resistant EE
[9] = both treatment groups (20 mg and 40 mg), after 2 weeks

Cc1cccc(C)c1CNc1cc(C(=O)NCCO)cn2c(C)c(C)nc12 [AZD0865]
clinical benefit over esomeprazole in treatment of NERD symptoms ([1]; 4 weeks): did not provide clinical benefit over esomeprazole
duration of effect [1]: prolonged, dose-dependent duration of effect
inhibition of acid production [1]: rapid inhibition of acid production

CNCc1cc(-c2ccccc2F)n(S(=O)(=O)c2cccnc2)c1.O=C(O)/C=C/C(=O)O [TAK-438, 1-[5-(2-fluorophenyl)-1-(pyridin-3-ylsulfonyl)-1H-pyrrol-3-yl]-N-methylmethanamine]
inhibitory action on gastric acid secretion compared with lansoprazole (gastric acid secretion [2]): more potent and longer-lasting
heartburn and/or regurgitation symptoms [3]: can reduce heartburn and/or regurgitation symptoms throughout the whole day and night
percentage of heartburn-free days and nights (24-hour periods) [3]: can increase the percentage of heartburn-free days and nights
mean 24-hour esophageal pH 4 HTR (gastric acid secretion [4]; [7]): 98.41%
mean 24-hour gastric pH 4 HTR (gastric acid secretion [4]; [7]): 96.46%
effect on gastric acid secretion (gastric acid secretion [4]; TAK-438 20 mg or 40 mg, nighttime as well as daytime, subjects with PPI-resistant EE): suppressed gastric acid secretion
mean 24-hour esophageal pH 4 HTR (gastric acid secretion [4]; [8]): 99.86%
mean 24-hour gastric pH 4 HTR (gastric acid secretion [4]; [8]): 100.00%
increases in gastric and esophageal pH 4 HTRs, 40 mg versus 20 mg group (gastric acid secretion [4]; after 2 weeks, differences between groups not statistically significant): greater in the TAK-438 40 mg group than in the TAK-438 20 mg group
mean 24-hour esophageal pH 1, 2, 3, 6, and 7 HTRs, change from baseline (gastric acid secretion [4]; [9]): remained almost unchanged
mean 24-hour esophageal pH 5 HTR, change from baseline (gastric acid secretion [4]; [9]): slightly increased
mean 24-hour gastric pH 2, 3, 5, 6, and 7 HTRs, change from baseline (gastric acid secretion [4]; [9]): increased from baseline
mean 24-hour gastric pH 1 HTR (gastric acid secretion [4]; both treatment groups (20 mg and 40 mg), after 2 weeks of TAK-438, baseline also 100.00%): 100.00%
mean gastric pH, change from baseline (gastric acid secretion [4]; both treatment groups, 12-hour and 24-hour periods): increased from baseline
mean gastric pH 4 HTRs during daytime and nighttime (gastric acid secretion [4]; both treatment groups, changes greater during nighttime than daytime): increased during both the daytime and nighttime with statistical significance
mean esophageal pH, change from baseline (gastric acid secretion [4]; both treatment groups, lesser extent than mean gastric pH): also increased
significance of increase from baseline in 24-hour gastric pH 4 HTR (gastric acid secretion [4]; both treatment groups, lower limits of 95% CI of mean changes greater than 0): statistically significant
significance of change from baseline in 24-hour esophageal pH 4 HTR (gastric acid secretion [4]; either treatment group (20 mg, 40 mg)): not statistically significant
efficacy in treatment of EE and maintenance of EE healing (erosive esophagitis (EE)): effective for the treatment of EE and maintenance of EE healing
EE healing rate after 8-week treatment ([5]; TAK-438 20 mg group, 4 out of 9 subjects): 44.4%
EE healing rate after 8-week treatment ([5]; TAK-438 40 mg group, 5 out of 9 subjects): 55.6%
overall efficacy ([5]; subjects with PPI-resistant EE of LA Grades A to D, 20 mg or 40 mg): effective
time to near maximal effect on pH holding time (pH holding time; after dosing, maintained with chronic dosing): ≤ 24 hours
onset of action (pH holding time; after the first dose, single and multiple repeat-dosing studies): rapid onset of action after the first dose
safety and tolerability [6]: safe, and well tolerated
